In brackets after ≈: the same amount, converted by molar mass.
How the values were obtained:
[1] = Acute toxicity of G 8 in female mice; assay type: in vivo, mouse
Procedure: (§1) Furthermore, G8 compound was tested for acute toxicity by several modes of administration in four species, namely mouse, rat, guinea pig and rabbit. […] The test results are given below in tables 1, 2, 3 and 4.
Acute toxicity of G 8 in female mice

[2] = Acute Toxicity of G 8 in the Rat; assay type: in vivo; settings: for Dead/Treated within 21 days / Body Weight (m ± SEM), Termination: first experiment
Procedure: as §1
Acute Toxicity of G 8 in the Rat

[3] = Acute toxicity of G 8 in the guinea pig by oral administration; assay type: in vivo
Procedure: as §1
Acute toxicity of G 8 in the guinea pig by oral administration

[4] = Acute toxicity of G 8 in the rabbit by esophageal administration; assay type: in vivo
Procedure: as §1
Acute toxicity of G 8 in the rabbit by esophageal administration

[5] = acute toxicity by several modes of administration in four species (overall); assay type: in vivo, guinea pig and rabbit; settings: mouse, rat, guinea pig, rabbit
Procedure: as §1

[6] = system: Treponema hyodysenteriae; assay: in vitro minimum inhibitory concentration / activity against Treponema hyodysenteriae; assay type: cell-based
Procedure: Compound G 8 has been tested "in vitro" against Treponema hyodysenteriae by a known technique. The minimum inhibitory concentration (the lowest concentration of compound in a dilution series where growth is inhibited) was 0.1 μg/ml.

[7] = growth promotion in baby-swines fed G 8 in rations; assay type: in vivo, swine
Procedure: The effect of compound G 8 was tested in feed rations for baby-swines.
Compound G 8 was added at a dosage level of 100 g/ton of feed. Five replicate groups of 10 animals (5 males and 5 females), age one day, were fed the ration containing G 8 and compared to 5 replicate groups of animals (5 males and 5 females) which received the same ration but without G 8.
The test period was 28 days.

[8] = teratogenetic study with male and female mice and rats; assay type: in vivo
Procedure: Furthermore, teratogenetic study was conducted with male and female mice and rats.

[9] = Chronic toxicity in female mice; assay type: in vivo
Text: Chronic toxicity has been studied in female mice.

[10] = Subacute toxicity of G 8 in the mouse; assay type: in vivo; settings: for SGPT / SGOT: 1 g/kg/day, 24 hrs. after last dose
Procedure: (§2) In view of the favorable acute toxicity data, compound G 8 was administered orally in sub-acute, but relatively large doses, to mice and rats for 15 days.
Subacute toxicity of G 8 in the mouse
Daily dose: 500 mg. G 8 by gastric gavage for 15 days
Daily dose: 1 g/kg/day for 15 days
b. SGOT and SGPT (24 hrs. after last dose)

[11] = system: swine dysentery; assay: swine dysentery in swine herd fed G 8 in rations; assay type: in vivo; settings: 400 g/ton in rations, herd with dysentery
Procedure: Compound G 8 is mixed with swine feed rations at a level of 200 g/ton and was fed to swine housed in an area where there has been a previous outbreak of swine dysentery. Another herd was housed in a similar area, where there has been a previous outbreak of dysentery. They were fed the same rations as the first herd, but with no G 8 or other drug.
Many members of the herd developed symptoms of dysentery. G 8 was then added with the rations at a level of 400 g/ton.

[12] = Subacute toxicity of G 8 in female rats; assay type: in vivo, rat; settings: 2 g/kg/day, gastric gavage, 21 days
Procedure: as §2
Subacute toxicity of G 8 in female rats
Daily dose: […] of G 8 in female rats by gastric
Daily dose: 2 g/kg/day of G 8 by gastric gavage for 21 days

For COc1ccc(O)c(C(O)c2c[n+]([O-])c3ccccc3[n+]2[O-])c1 (centres unmarked) [G 8, quinoxalyl-N^1,N^4-dioxide-2-hydroxy-5-methoxy-phenylcarbinol], the Dead/Treated animals ([1]; endoperitoneal, 250 mg/kg, after 7 days) was 0/18, the Dead/Treated animals ([1]; endoperitoneal, 500 mg/kg, after 7 days) was 6/12 and the Dead/Treated animals ([1]; endoperitoneal, 1000 mg/kg, after 2 days) was 6/6. The Dead/Treated animals ([1]; endoperitoneal, 1000 mg/kg, after 7 days) was 6/6, the Dead/Treated animals ([1]; endoperitoneal, 2000 mg/kg, after 1 day) was 6/6 and the Dead/Treated animals ([1]; endoperitoneal, 2000 mg/kg, after 7 days) was 6/6. For the same compound, the Dead/Treated animals ([1]; oral, 1000 mg/kg, after 7 days) was 0/12, the Dead/Treated animals ([1]; oral, 2000 mg/kg, after 7 days) was 0/12 and the Dead/Treated animals ([1]; oral, 4000 mg/kg, after 4 days) was 1/12. For the same compound, the Dead/Treated animals ([1]; oral, 4000 mg/kg, after 7 days) was 1/12, the “Dead/Treated within 7 days” value ([2]; cumulative data regardless of animal sex, intraperitoneal, 500 mg/kg) was 4/16 and the “Dead/Treated within 7 days” value ([2]; cumulative data regardless of animal sex, oral, 4000 mg/kg) was 0/16. For the same compound, the “Dead/Treated within 21 days” value ([2]; female, endoperitoneal, 500 mg/kg) was 2/4, the “Dead/Treated within 21 days” value ([2]; female, oral, 4000 mg/kg) was 0/4 and the “Body Weight (m ± SEM), Termination” value ([2]; female, oral, 4000 mg/kg, start 201.2 ± 4.2, vehicle 189.2 ± 3.9 to 230.0 ± 10.5) was 238.2 ± 12.1 g. For the same compound, the “Dead/Treated within 21 days” value ([2]; male, endoperitoneal, 500 mg/kg) was 1/4, the “Body Weight (m ± SEM), Termination” value ([2]; male, endoperitoneal, 500 mg/kg, start 234.0 ± 6.2, vehicle 230.0 ± 5.7 to 324.0 ± 8.7) was 314.3 ± 10.3 g and the “Dead/Treated within 21 days” value ([2]; male, oral, 4000 mg/kg) was 0/4. The “Body Weight (m ± SEM), Termination” value ([2]; male, oral, 4000 mg/kg, start 234.5 ± 13.8, vehicle 233.7 ± 3.7 to 331.0 ± 0.5) was 288.7 ± 13.8 g, the “Dead/Treated within 7 days” value ([2]; second experiment, female, intraperitoneal, 500 mg/kg) was 0/4 and the “Body weight (±SE), Termination” value ([2]; second experiment, female, intraperitoneal, 500 mg/kg, start 232.5 ± 5.9) was 218.2 ± 7.0 g. For the same compound, the “Dead/Treated within 7 days” value ([2]; second experiment, female, oral, 4000 mg/kg) was 0/4, the “Body weight (±SE), Termination” value ([2]; second experiment, female, oral, 4000 mg/kg, start 252.0 ± 16.6) was 253.5 ± 12.1 g and the “Dead/Treated within 7 days” value ([2]; second experiment, male, intraperitoneal, 500 mg/kg) was 2/4. The “Dead/Treated within 7 days” value ([2]; second experiment, male, oral, 4000 mg/kg) was 0/4, the “Body weight (±SE), Termination” value ([2]; second experiment, male, oral, 4000 mg/kg, start 222.5 ± 6.2) was 231.7 ± 15.7 g and the “Dead/Treated within 21 days” value ([3]; 500 mg/kg) was 0/4. The “Dead/Treated within 21 days” value ([3]; 1000 mg/kg) was 1/4, the “Dead/Treated within 21 days” value ([3]; 2000 mg/kg) was 5/6 and the “Dead/Treated within 21 days” value ([3]; 4000 mg/kg) was 6/6. The “Dead/Treated within 7 days” value ([4]; 500 mg/kg) was 0/2, the “Dead/Treated within 7 days” value ([4]; 1000 mg/kg) was 0/4 and the “Body weight (m ± SE), Termination” value ([4]; 1000 mg/kg, start 2037 ± 104.3, vehicle 2135 ± 75 to 2262 ± 215) was 1922.5 ± 71.5 g. The “Dead/Treated within 7 days” value ([4]; 2000 mg/kg) was 0/2, the “Body weight, Termination” value ([4]; 2000 mg/kg, start 2250-2150) was 2180 + 2140 g and the “order of acute toxicity” value [5] was “low order toxicity”. For the same compound, the “order of acute toxicity” value ([5]; listed as G8) was “low order of toxicity”, the “action against Treponema hyodysenteriae (specificity)” value [6] was “clearly specific action against Treponema hyodysenteriae” and the MIC ([6]; Brachyspira hyodysenteriae, read-out: minimum inhibitory concentration) was 0.1 µg/mL (≈ 0.318 µM). The “Improvement, % (body weight gain)” value ([7]; 100 g/ton of feed, 28 days, combined average vs ration without G 8) was 3.1%, the “Improvement, % (feed/gain ratio)” value ([7]; 100 g/ton of feed, 28 days, vs ration without G 8) was 2.8% and the Feed/gain ratio ([7]; 100 g/ton of feed, 28 days, without G 8: 1.82) was 1.77. The “Body weight gain/swine, Females” value ([7]; 100 g/ton of feed, 28 days, without G 8: 5740 g) was 5880 g, the “Body weight gain/swine, Combined average” value ([7]; 100 g/ton of feed, 28 days, without G 8: 6000) was 6190 and the “Body weight gain/swine, Males” value ([7]; 100 g/ton of feed, 28 days, without G 8: 6150 g) was 6480 g. For the same compound, the growth promoting action ([7]; qualitative statement) was “effective growth promoting factor”, the malformations [8] was “No malformations in either group were observed” and the “number of young delivered live at birth” value [8] was “comparable with controls”. For the same compound, the Chronic toxicity [9] was “very satisfactory”, the Dead/Treated ([10]; 500 mg/kg/day, gastric gavage, 15 days) was 0/10 and the “Fresh organ to body weight ratio, Kidneys” value ([10]; 500 mg/kg/day, gastric gavage, 15 days, vehicle 1.4 ± 0.1) was 1.5 ± 0.1. For the same compound, the “Fresh organ to body weight ratio, Liver” value ([10]; 500 mg/kg/day, gastric gavage, 15 days, vehicle 5.2 ± 0.2) was 5.9 ± 0.3, the “% Body weight change (m ± SE)” value ([10]; 500 mg/kg/day, gastric gavage, 15 days, vehicle 20.4 ± 4.2) was -8.1 ± 3.9% and the Dead/Treated ([10]; 1 g/kg/day for 15 days, oral, in adraganth gum) was 3/12. The “% Body weight change” value ([10]; 1 g/kg/day for 15 days, oral, in adraganth gum, vehicle 25.04 ± 1.18) was 16.27 ± 1.31%, the Dead/Treated ([10]; 1 g/kg/day for 15 days, oral, in water) was 2/12 and the “% Body weight change” value ([10]; 1 g/kg/day for 15 days, oral, in water, vehicle 24.54 ± 0.64) was 18.5 ± 0.75%. The SGPT ([10]; oral, in adraganth gum, vehicle 6) was 10 Units/ml, the SGOT ([10]; oral, in adraganth gum, vehicle 119) was 132 Units/ml and the SGPT ([10]; oral, in water, vehicle 4) was 9 Units/ml. The SGOT ([10]; oral, in water, vehicle 116) was 124 Units/ml, the “dysentery symptoms of diseased members” value [11] was “the diseased members became free from dysentery symptoms” and the “spread of the disease” value [11] was “The spread of the disease was halted”. For the same compound, the “Average percent weight of fresh organs (m ± SE), Lung” value ([12]; 5 animals, NS, vehicle 0.85 ± 0.06) was 1.08 ± 0.09%, the “Average percent weight of fresh organs (m ± SE), Kidneys” value ([12]; 5 animals, NS, vehicle 0.95 ± 0.04) was 1.04 ± 0.3% and the “Average percent weight of fresh organs (m ± SE), Liver” value ([12]; 5 animals, vehicle 3.45 ± 0.07) was 4.54 ± 0.10%. For the same compound, the Dead/Treated ([12]; death caused by a mistake in esophagus incannulation) was 1/6 and the “Body weight in g (m ± SE), Termination” value ([12]; start 204.1 ± 2.0, vehicle 200.0 ± 4.1 to 233.2 ± 5.1) was 210.6 ± 9.6 g.
